Assay results: PubChem BioAssay AID1963845 (Molecular Pharmacology Branch, DTP, NCI, 2024)

Test system: 429239-143-T-J1-PDC complex spheroid viability
Assay: Anticancer human tumor 429239-143-T-J1-PDC patient-derived small cell lung carcinoma cell line growth inhibition [POLQ]
Conditions: for IC50: curve of first compound; for viability, T/C: stronger effect = lower value; active = viability on the fitted dose curve at most 10% of control; inactive = the rest
Description: Multicellular complex tumor spheroid response to Polymerase (POL) inhibitors (novobiocin, ART-558, RP6685) in combination with a variety of drugs and investigational agents in selected tumor cell lines
The POL inhibitors (novobiocin, ART-558, and RP6685) were evaluated both individually and in combination with standard of care and investigational anticancer small molecules within a complex spheroid model of solid tumors. . Complex spheroids include a stromal component modeled by human endothelial cells (HUVEC) and fibroblasts modeled by human mesenchymal stem cells (MSCs). The concentration ranges selected for each drug and investigational agent were based upon clinically achievable concentrations if the clinical Cmax of the agent was known.
Compounds. The drugs and investigational agents: novobiocin (NSC847541), ART-558 (NSC835418), RP-6685 (NSC848927), peposertib (NSC802822), ceralasertib (NSC780249), elimusertib (NSC800525), camonsertib (NSC841442), AZD-1390 (NSC803789), olaparib (NSC753686), talazoparib (NSC767125), rucaparib (NSC756644), sotorasib (NSC818433), MRTX-1133 (NSC836407), SN-38 (NSC673596), topotecan (NSC609699), epotoside (NSC141540), doxorubicin (NSC123127), gemcitabine (NSC613327), 5-fluorouracil (NSC19893), paclitaxel (NSC125973), vemurafenib (NSC761431), MSA-2 (NSC828583), SN-011 (NSC837082), adavosertib (NSC754352), prexasertib (NSC758257), carboplatin (NSC241240) and oxaliplatin (NSC266046), were obtained from the National Cancer Institute (NCI) Developmental Therapeutics Program Chemical Repository (21). The FDA-approved anticancer drug set is available from the Developmental Therapeutics Program at https://dtp.cancer.gov/organization/dscb/obtaining/. […] The stock solutions were prepared in dimethyl sulfoxide (DMSO, Sigma-Aldrich, St. Louis, MO, cat. D2650), except for the platinum compounds which were prepared in saline (Quality Biological, Gaithersburg, MD, cat. 114-055-101), at 800-fold the tested concentration and stored at -70 degrees C prior to their use. All drugs and investigational agents were tested over a range starting from a high concentration at or near the clinical Cmax and decreasing in half-log increments. If the clinical Cmax for an agent had not been determined, the highest concentration tested was 10 microM, except for SN-38, which was tested at a high concentration of 1 microM.
Cell Culture. All cells were maintained in an incubator at 37 degrees C and 5% CO2 with 95% humidity. The PDC lines were cultured according to standard operating procedures established by the NCI PDMR (https://pdmr.cancer.gov). Table 3 of the manuscript, lists the cell lines along with the number of the three cell types plated to form the mct-spheroids and media for tumor cell growth. After thawing, all PDC lines, except 997537-175-T-J1-PDC and 415267-285-R-J2-PDC, were cultured in Matrigel-coated flasks prepared with a working solution of 1X Ham's F-12 nutrient mix, without supplementation (Thermo Fisher Scientific, cat. 11765054), 100 U/mL penicillin-streptomycin (Thermo Fisher Scientific, cat. 15140122), and 2.5% Matrigel (Corning Inc., Corning, NY, cat. 354248) for the first three passages. The two PDC lines 997537-175-T-J1-PDC and 415267-285-R-J2-PDC were cultured on uncoated flasks. The 857933-349-R-J2-PDC line was cultured in 6C/Colon 1B media containing advanced DMEM/F-12 (Thermo Fisher Scientific, cat. 12634028), 10 mM HEPES (Thermo Fisher Scientific, cat. 15630080), 1X GlutaMAX supplement (Thermo Fisher Scientific, cat. 35050061), 0.1 mg/mL primocin (InvivoGen, San Diego, CA, cat. ant-pm-2), 10% defined fetal bovine serum, heat inactivated (HyClone Laboratories Inc., Logan, UT, cat. SH30070.03HI), 50% L-WRN conditioned media (ATCC, cat. CRL-3276), 1.25 mM N-Acetyl-L-cysteine (Sigma-Aldrich, cat. A9165), 10 mM nicotinamide (Sigma-Aldrich, cat. N0636), 1X B-27 supplement (Thermo Fisher Scientific, cat. 17504044), 1X N-2 supplement (Thermo Fisher Scientific, cat. […]
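Note: luminescence signal used as surrogate measure of viable cells; spheroids exposed to compounds for seven days before readout.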
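Throughout, for viability, T/C: 100% = DMSO vehicle control viability as luminescence relative to vehicle.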

Cn1ncnc1[C@H]1c2n[nH]c(=O)c3cc(F)cc(c23)N[C@@H]1c1ccc(F)cc1 + Nc1ccc(C#CCN(C(=O)Cc2ncc(C(F)(F)F)cc2C(F)(F)F)c2ccc(F)cc2)nn1
inactive: viability, T/C (second compound 0.0316 µM, first compound 0.000316 µM) 101% | viability, T/C (second compound 0.0316 µM, first compound 0.001 µM) 104% | viability, T/C (second compound 0.0316 µM, first compound 0.00316 µM) 89.8% | viability, T/C (second compound 0.0316 µM, first compound 0.01 µM) 83.4% | viability, T/C (second compound 0.0316 µM, first compound 0.0316 µM) 83.1% | viability, T/C (second compound 0.0316 µM, first compound 0.1 µM) 60.8% | viability, T/C (second compound 0.1 µM, first compound 0.000316 µM) 101% | viability, T/C (second compound 0.1 µM, first compound 0.001 µM) 104% | viability, T/C (second compound 0.1 µM, first compound 0.00316 µM) 95.3% | viability, T/C (second compound 0.1 µM, first compound 0.01 µM) 83.1% | viability, T/C (second compound 0.1 µM, first compound 0.0316 µM) 84.7% | viability, T/C (second compound 0.1 µM, first compound 0.1 µM) 60.4% | viability, T/C (second compound 0.316 µM, first compound 0.000316 µM) 104% | viability, T/C (second compound 0.316 µM, first compound 0.001 µM) 101% | viability, T/C (second compound 0.316 µM, first compound 0.00316 µM) 93.7% | viability, T/C (second compound 0.316 µM, first compound 0.01 µM) 83.8% | viability, T/C (second compound 0.316 µM, first compound 0.0316 µM) 79.8% | viability, T/C (second compound 0.316 µM, first compound 0.1 µM) 67.1% | viability, T/C (second compound 1 µM, first compound 0.000316 µM) 111% | viability, T/C (second compound 1 µM, first compound 0.001 µM) 112% | viability, T/C (second compound 1 µM, first compound 0.00316 µM) 95.1% | viability, T/C (second compound 1 µM, first compound 0.01 µM) 87.8% | viability, T/C (second compound 1 µM, first compound 0.0316 µM) 81.7% | viability, T/C (second compound 1 µM, first compound 0.1 µM) 58% | viability, T/C (second compound 3.16 µM, first compound 0.000316 µM) 106% | viability, T/C (second compound 3.16 µM, first compound 0.001 µM) 91.4% | viability, T/C (second compound 3.16 µM, first compound 0.00316 µM) 94.2% | viability, T/C (second compound 3.16 µM, first compound 0.01 µM) 95.2% | viability, T/C (second compound 3.16 µM, first compound 0.0316 µM) 75.8% | viability, T/C (second compound 3.16 µM, first compound 0.1 µM) 69.8% | viability, T/C (second compound 10 µM, first compound 0.000316 µM) 108% | viability, T/C (second compound 10 µM, first compound 0.001 µM) 91.7% | viability, T/C (second compound 10 µM, first compound 0.00316 µM) 101% | viability, T/C (second compound 10 µM, first compound 0.01 µM) 87.9% | viability, T/C (second compound 10 µM, first compound 0.0316 µM) 74.2% | viability, T/C (second compound 10 µM, first compound 0.1 µM) 60.2%
> 100 nM: IC50 (second compound 0.0316 µM) | IC50 (second compound 0.1 µM) | IC50 (second compound 0.316 µM) | IC50 (second compound 1 µM) | IC50 (second compound 3.16 µM) | IC50 (second compound 10 µM)
